Results from publication PMC6264499, “In silico identification and experimental validation of hits active against KPC-2 β-lactamase” (PLoS ONE, 2018).
pIC50, pKi: −log10 of the molar value.

Legend:
recombinant KPC-2 = molecular target: T1, recombinant KPC-2 (Klebsiella pneumoniae, UniProt Q9F663); assay: KPC-2 inhibition assay, CENTA as reporter substrate; assay type: biochemical
T1 construct: made in house; host or cells: E. coli BL21 (DE3)
Protocol: The blaKPC-2 gene was kindly provided by Prof. Sergei Vakulenko (University of Notre Dame du Lac, Indiana, USA) and cloned as already reported and transformed into competent E.coli BL21 (DE3) cells for protein expression. 50 mL of Tryptic Soy Broth (TSB) (50 mg/L kanamycin) were inoculated with fresh colonies and grown at 37°C. 4 mL of the overnight culture was used to inoculate 1.3 L of TSB (50 mg/L kanamycin) grown at 37°C with shaking to an optical density of 0.5 measured at 600 nm. Then expression of recombinant bla gene was induced by adding 1.0 mM IPTG (isopropyl-D-thiogalactopyranoside) and the cells were again allowed to grow at 20°C overnight. Bacteria were harvested by centrifugation at 4000 rpm for 20 minutes. The pelleted cells were resuspended in Tris-HCl 50 mM pH 7.4–7.5. Periplasmatic proteins were extracted as reported in the pET System Manual (TB055 10th Edition Rev. B 0403) and subsequently dialyzed in sodium acetate buffer (50 mM, pH 5.0). The protein was conveniently purified in a single step using a Macro-Prep High S resin and eluted using sodium acetate 50 mM pH 5.0 and a sodium chloride (NaCl) linear gradient from 100 to 500 mM. The purified protein was dialyzed overnight in sodium phosphate buffer 50 mM, pH 7.0 [31, 32].
The hydrolytic activity of KPC-2 was measured using the β-lactam substrates CENTA (100 uM, KM 70 uM) or nitrocefin (114 uM, KM 36 μM) in reaction buffer consisting of 50 mM of PB at pH 7.0 at 25°C with 0.01% v/v Triton X-100 to avoid compound aggregation and promiscuous inhibition.[33] Reactions were monitored using a Beckmann DU640 spectrophotometer at […] for CENTA and 480 nm wavelength for nitrocefin [34]. The test compounds were synthesized as described below or purchased from Enamine, TimTec, Vitas-M, ChemBridge, Otava, Life Chemicals or Apollo Scientific and assayed without further purification. Compounds were dissolved in dimethyl sulfoxide (DMSO) to a concentration of 25 mM and stored at -20°C. The highest concentration at which the compounds were tested was up to 1 mM (depending on their solubility). All experiments were performed in duplicate and the error never exceeded 5%. The reaction was typically initiated by adding KPC-2 to the reaction buffer last. To control for incubation effects, protein was added to the reaction buffer first, and the reaction was initiated by the addition of reporter substrate after 10 minutes of enzyme-compound incubation.
Fig 4 Inhibitory activity of compounds selected from virtual screening. ^[a]Assays were performed in duplicate (errors were less than 5%) with CENTA as reporter substrate (100 μM, km 70 μM). Kinetic were monitored at 25° by following the absorbance variation at λ = 405 nm. ^[b] If no IC50 has been measured, percent inhibition at the highest tested concentration is given in parentheses. For example, > 0.50 (26%) implies that the highest concentration tested was 0.50 mM; at this concentration, the enzyme was inhibited by 26%. Therefore, IC50> 0.50 mM. When % Inhibition was below 10% No Inibition (NI) is reported. ^[c]Assays were run after 10’ incubation of the inhibitor with KPC-2. Reaction was started by the addition of CENTA. […] 0 (11) | 32a: IC50 mM ^[a,b]: 1.24
Competitive inhibition mechanism and the Ki for compound 9a was determined by Lineweaver–Burk (LB) and Dixon plots.

CTX-M9 = CTX-M9 (Escherichia coli, UniProt Q9L5C8); assay: Inhibition of other class A β-lactamase CTX-M9; assay type: biochemical
Protocol: (§1) For compound 9a binding affinity and mode of inhibition was determined by using gradient concentrations of CENTA. […] For this compound aggregating behavior was also excluded by dynamic light scattering experiment (data not shown).

[1] = Dynamic light scattering, aggregating behavior; assay type: physicochemical; conditions: dynamic light scattering (data not shown)
Protocol: as §1

Kpn (C-) = assay: MIC of meropenem, alone or 1:1 with compounds, control strain; assay type: cell-based, K. pneumoniae; conditions: Klebsiella pneumoniae, no compound added
Protocol: (§2) The antimicrobial activity of the best hits 9a and 11a and their derivatives was studied in bacterial cell cultures to investigate their ability to cross the outer membrane reaching the periplasmic space, where KPC-2 is secreted and confined in Gram negative bacteria. Compounds were tested for synergy with the β-lactam antibiotic meropenem against four K. pneumoniae clinical strains, isolated from different patients at the Hospital Universitario Son Espases, Palma de Mallorca, Spain. […] The three additional strains harbored the blaKPC-2 gene and were resistant to meropenem (Table 2). […] However, against strain Kpn 53A8 the MIC value was lowered by a factor of two when meropenem was combined with compounds 32a, 1b, 2b, 5b and 6b while in combination with compound 11a the MIC value was reduced by 4 fold.

Kpn 53A8 = assay: MIC of meropenem, alone or 1:1 with compounds, KPC-2 clinical strain; assay type: cell-based, K. pneumoniae; conditions: Klebsiella pneumoniae; Kpn 53A8; no compound added
Protocol: as §2

Kpn 53A9 = assay: as above; assay type: cell-based, K. pneumoniae; conditions: Klebsiella pneumoniae, no compound added
Protocol: as §2

Kpn 99D8 = assay: as above; assay type: cell-based, K. pneumoniae; conditions: Klebsiella pneumoniae, no compound added
Protocol: as §2

T1 sequence (Q9F663 25-293, looked up): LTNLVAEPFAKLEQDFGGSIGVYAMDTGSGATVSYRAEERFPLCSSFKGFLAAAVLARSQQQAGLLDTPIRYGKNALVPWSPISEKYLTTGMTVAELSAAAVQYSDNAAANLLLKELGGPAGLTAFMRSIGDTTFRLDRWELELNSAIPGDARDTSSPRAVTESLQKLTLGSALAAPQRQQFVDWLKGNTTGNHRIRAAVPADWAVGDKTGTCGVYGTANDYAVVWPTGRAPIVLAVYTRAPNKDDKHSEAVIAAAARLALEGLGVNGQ
CTX-M9, sequence (Q9L5C8 29-291): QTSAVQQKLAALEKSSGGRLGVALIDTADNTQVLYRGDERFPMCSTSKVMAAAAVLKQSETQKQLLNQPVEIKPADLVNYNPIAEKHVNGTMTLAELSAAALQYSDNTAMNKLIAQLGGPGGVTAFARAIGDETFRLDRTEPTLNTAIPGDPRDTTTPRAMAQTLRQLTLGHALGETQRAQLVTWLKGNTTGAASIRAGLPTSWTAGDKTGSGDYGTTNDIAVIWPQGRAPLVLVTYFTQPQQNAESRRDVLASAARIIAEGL

Compound | pIC50 (recombinant KPC-2; CENTA 100 μM, after 10' incubation of the inhibitor with KPC-2, read-out: IC50) | pKi (recombinant KPC-2; Lineweaver–Burk and Dixon plots, gradient concentrations of CENTA, read-out: Ki (determined)) | ligand efficiency (LE) (recombinant KPC-2; vs KPC-2) | mode of inhibition (recombinant KPC-2; vs KPC-2) | pIC50 (CTX-M9) | aggregating behavior [1] | MIC (Kpn (C-)) | MIC (Kpn 53A8) | MIC (Kpn 53A9) | MIC (Kpn 99D8)
COc1ccc2nc(C(=O)O)sc2c1 [9a] | 3.82 | 3.95 | 0.38 kcal/mol/non-hydrogen atom | competitive inhibitor | 3.80 | excluded | – | – | – | –
C[C@@H](O)[C@H]1C(=O)N2C(C(=O)O)=C(S[C@@H]3CN[C@H](C(=O)N(C)C)C3)[C@H](C)[C@H]12 [meropenem] | – | – | – | – | – | – | < 0.25 µg/mL | 256 µg/mL | 256 µg/mL | 256 µg/mL
